44 compounds from patent EP4582413A1, “ARYLTETRAHYDROPYRIDINE COMPOUND AND PEST CONTROL AGENT” (priority 2022, dated 2024) can be followed below.

What all share (assay type): in vivo
Series [1] deals with cat fleas (Ctenocephalides felis). In words: whole plant or invertebrate. The following applies: 72 h, read-out: death rate. The method, then:
In 1 ml of acetone, 1 mg of the presently invented compound was dissolved to prepare a chemical solution having a concentration of 1000 ppm. The bottom surface and side surface of each glass container having an inner wall surface area of 25 cm^2 were coated with 250 µl of the chemical solution, and acetone was then volatilized to form a thin film of the compound on the inner wall of the glass container.
Into each of the treated glass containers, five cat fleas (Ctenocephalides felis) imagoes (mixed-sex) were released, and the glass containers were capped and accommodated in a thermostatic room at 25°C. Three days after the release, the number of dead flea individuals were examined, and the death rate was calculated from the same calculation formula as in Test Example 1.

The test system of series [2] is western flower thrips (Frankliniella occidentalis). In words: Insecticidal activity against western flower thrips. The following applies: 500 ppm chemical solution sprinkled (2.5 mg/cm^2), larvae on common bean leaf, after 2 days; for mortality at 500 µg/mL: Frankliniella occidentalis, 48 h, read-out: death rate. The procedure: Wet filter paper was laid on each styrol cup having an inner diameter of 7 cm, and a common bean leaf cut into a 3 cm square was placed thereon, and inoculated with 20 western flower thrips (Frankliniella occidentalis) larvae. A 10% by mass emulsion of the presently invented compound prepared according to the above formulation example for an emulsion was diluted with water containing a spreader to prepare a chemical solution having a concentration of 500 ppm. For each styrol cup, 2.5 ml of the chemical solution prepared was sprinkled (2.5 mg/cm^2) with a rotary tower sprinkler. […] The test was carried out in duplicate.

The test system of series [3] is diamondback moths (Plutella xylostella). In words: Insecticidal test for diamondback moths. The following applies: 500 ppm chemical solution, leaves soaked, third-instar larvae, six days, 25°C; for mortality at 500 µg/mL: Plutella xylostella, 144 h, read-out: death rate; for death rate: 8640 min. The procedure:
A 10% by mass emulsion of the presently invented compound prepared according to the above formulation example for an emulsion was diluted with water containing a spreader to prepare a chemical solution having a concentration of 500 ppm. Chinese olive leaves were soaked in the chemical solution for approximately 10 seconds. After the completion of the soaking operation, the Chinese olive leaves treated with the chemical solution were air-dried, and then put in dishes. Into each dish, five third-instar diamondback moths (Plutella xylostella) larvae were released, and the dishes were capped and accommodated in a thermostatic room at 25°C. […] The test was carried out in duplicate.

Series [4] has as its system brown rice planthoppers (Nilaparvata lugens). In words: Insecticidal test for brown rice planthoppers. The following applies: 500 ppm chemical solution, rice leaf sheaths soaked, third-instar larvae, six days, 25°C; for mortality at 500 µg/mL: Nilaparvata lugens, 144 h, read-out: death rate; for death rate: 8640 min. The procedure: A 10% by mass emulsion of the presently invented compound prepared according to the above formulation example for an emulsion was diluted with water containing a spreader to prepare a chemical solution having a concentration of 500 ppm. Rice leaf sheaths were soaked in the chemical solution for approximately 10 seconds. After the completion of the soaking operation, the rice leaf sheaths treated with the chemical solution were air-dried, and then put in test tubes. Into each test tube, five third-instar brown rice planthoppers (Nilaparvata lugens) larvae were released, and the test tubes were capped with sponge and accommodated in a thermostatic room at 25°C. Six days after the accommodation, the number of dead brown rice planthoppers individuals in the test tubes were examined, and the death rate was calculated from a calculation formula shown below. The test was carried out in duplicate. [formula]

The structures appear in SMILES notation.

Consider `Cc1cccc(-c2noc(C3CC(O)=C(C(=O)Nc4ccc(F)cc4)C(=O)N3)n2)c1` (centres unmarked) [3-030], for which the mortality at 10 µg/cm2 in series [1] was ≥ 50%. Further, the mortality at 500 µg/mL in series [2], in series [3] and in series [4] was ≥ 90% throughout.
With `O=C(Nc1ccc(F)cc1)C1=C(O)CC(c2nc(-c3ccc(F)cc3)no2)NC1=O` (centres unmarked) [3-010], in series [1], the mortality at 10 µg/cm2 was ≥ 50%. The mortality at 500 µg/mL in series [2], in series [3] and in series [4] was ≥ 90% each time.
On to `O=C(Nc1ccc(F)cc1)C1=C(O)CC(c2cnc(Cl)c(-c3ccc(F)cc3)c2)NC1=O` (centres unmarked) [2-229], for which the mortality at 10 µg/cm2 in series [1] was ≥ 50%. The mortality at 500 µg/mL in series [2] and in series [3] was ≥ 90% in each case.
Regarding `CC(C)(C)OC(=O)c1ccc(NC(=O)C2=C(O)CC(c3cnc(Cl)c(-c4ccc(F)cc4)c3)NC2=O)cc1` (centres unmarked) [2-296], the mortality at 500 µg/mL in series [2] was ≥ 90%.
Consider `O=C(Nc1ccc(F)c(F)c1)C1=C(O)CC(c2nc(-c3ccc(F)cc3F)no2)NC1=O` (centres unmarked) [3-161], for which the mortality at 10 µg/cm2 in series [1] was ≥ 50%. The mortality at 500 µg/mL in series [2], in series [3] and in series [4] was ≥ 90% in each case.
On to `O=C(Nc1ccc(C(F)(F)F)cn1)C1=C(O)CC(c2cnc(Cl)c(-c3ccc(F)cc3)c2)NC1=O` (centres unmarked) [2-230], for which the death rate in series [2] is listed as ≥ 90%.
In the case of `O=C(Nc1ccccn1)C1=C(O)CC(c2nc(-c3cccc(F)c3)no2)NC1=O` (centres unmarked) [3-185], the mortality at 10 µg/cm2 in series [1] was ≥ 50%. Further, the mortality at 500 µg/mL in series [2], in series [3] and in series [4] was ≥ 90% in each case.
On to `Cc1cccc(-c2cc(C3CC(O)=C(C(=O)Nc4cccnc4F)C(=O)N3)cnc2Cl)c1` (centres unmarked) [2-275], for which, in series [1], the mortality at 10 µg/cm2 was ≥ 50%.
As for `O=C(Nc1ccc(F)cc1)C1=C(O)CC(c2nc(-c3ccc(Cl)cc3)no2)NC1=O` (centres unmarked) [3-003], the mortality at 10 µg/cm2 in series [1] was ≥ 50%. In addition, the mortality at 500 µg/mL in series [2] and in series [3] was ≥ 90% throughout.
Take `Cc1ccnc(-c2noc(C3CC(O)=C(C(=O)Nc4ccc(F)cn4)C(=O)N3)n2)c1` (centres unmarked) [3-153]: the death rate in series [4] is ≥ 90%.
Turning to `C#Cc1ccc(NC(=O)C2=C(O)CC(c3cnc(Cl)c(-c4ccc(F)cc4)c3)NC2=O)cc1` (centres unmarked) [2-243], the death rate in series [3] is on record as ≥ 90%.
Regarding `COc1ccc(-c2cc(C3CC(O)=C(C(=O)Nc4ccc(F)cc4)C(=O)N3)ccc2C(F)(F)F)cc1` (centres unmarked) [1-018], the mortality at 10 µg/cm2 in series [1] was ≥ 50%. Besides, the mortality at 500 µg/mL in series [3] is ≥ 90%.
Consider `O=C(Nc1ccccn1)C1=C(O)CC(c2cnc(Cl)c(-c3ccc(F)cc3)c2)NC1=O` (centres unmarked) [2-226], for which the mortality at 10 µg/cm2 in series [1] is ≥ 50%. Further, the mortality at 500 µg/mL in series [2] and in series [3] was ≥ 90% in each case.
For the compound `Cc1ccc(NC(=O)C2=C(O)CC(c3cnc(Cl)c(-c4cccc(C)c4)c3)NC2=O)cc1` (centres unmarked) [2-282], the mortality at 10 µg/cm2 in series [1] is ≥ 50%. Besides, the mortality at 500 µg/mL in series [2] and in series [3] was ≥ 90% throughout.
For `COc1ccc(NC(=O)C2=C(O)CC(c3cnc(Cl)c(-c4cccc(C)c4)c3)NC2=O)cc1` (centres unmarked) [2-258], the death rate in series [2] is ≥ 90%.
For the compound `O=C(Nc1cc(F)ccn1)C1=C(O)CC(c2nc(-c3ccncn3)no2)NC1=O` (centres unmarked) [3-212], the mortality at 10 µg/cm2 in series [1] is ≥ 50%. The mortality at 500 µg/mL in series [3] was ≥ 90%.
Turning to `O=C(Nc1ccc(O)cc1)C1=C(O)CC(c2cnc(Cl)c(-c3ccc(F)cc3)c2)NC1=O` (centres unmarked) [2-241], the death rate in series [3] is ≥ 90%.
As for `O=C(Nc1cnccn1)C1=C(O)CC(c2nc(-c3ccc(F)cn3)no2)NC1=O` (centres unmarked) [3-261], the mortality at 500 µg/mL in series [2] and in series [4] was ≥ 90% each time.
As to `O=C(Nc1ccc([N+](=O)[O-])c(Cl)c1)C1=C(O)CC(c2nc(-c3ccnc(F)c3)no2)NC1=O` (centres unmarked) [3-120], in series [2], the death rate was ≥ 90%.
For the compound `O=C(Nc1cc(F)ccn1)C1=C(O)CC(c2nc(-c3ccccn3)no2)NC1=O` (centres unmarked) [3-045], in series [1], the mortality at 10 µg/cm2 is ≥ 50%. The mortality at 500 µg/mL in series [2] and in series [4] was ≥ 90% in each case.
As for `Cc1ccc(NC(=O)C2=C(O)CC(c3nc(-c4ccsc4)no3)NC2=O)nc1` (centres unmarked) [3-168], the death rate in series [4] is listed as ≥ 90%.
In the case of `O=C(Nc1ncccn1)C1=C(O)CC(c2cnc(Cl)c(-c3ccc(F)cc3)c2)NC1=O` (centres unmarked) [2-238], the mortality at 10 µg/cm2 in series [1] was ≥ 50%. Moreover, the mortality at 500 µg/mL in series [2] and in series [4] was ≥ 90% throughout.
As for `O=C(Nc1ncccc1F)C1=C(O)CC(c2nc(-c3cnccc3F)no2)NC1=O` (centres unmarked) [3-237], the mortality at 10 µg/cm2 in series [1] is ≥ 50%. Also, the mortality at 500 µg/mL in series [3] and in series [4] was ≥ 90% throughout.
For the compound `O=C(Nc1ncc(C(F)(F)F)cn1)C1=C(O)CC(c2cnc(Cl)c(-c3cncc(F)c3)c2)NC1=O` (centres unmarked) [2-051], in series [4], the death rate is given as ≥ 90%.
Regarding `O=C(Nc1cc(F)ccn1)C1=C(O)CC(c2nc(-c3c(F)cccc3Cl)no2)NC1=O` (centres unmarked) [3-143], the mortality at 500 µg/mL in series [3] was ≥ 90%.
On to `CC(=O)c1ccc(-c2cc(C3CC(O)=C(C(=O)Nc4ccc(Cl)cn4)C(=O)N3)cnc2Cl)cc1` (centres unmarked) [2-066], for which the death rate in series [3] is reported as ≥ 90%.
As to `Cc1cncc(-c2cc(C3CC(O)=C(C(=O)Nc4cnccn4)C(=O)N3)cnc2Cl)c1` (centres unmarked) [2-148], the mortality at 10 µg/cm2 in series [1] is ≥ 50%. Also, in series [3], the mortality at 500 µg/mL is ≥ 90%.
As to `Cc1cncc(-c2noc(C3CC(O)=C(C(=O)Nc4ccc(F)cn4)C(=O)N3)n2)c1` (centres unmarked) [3-130], the death rate in series [4] is on record as ≥ 90%.
For the compound `CC(=O)c1ccc(NC(=O)C2=C(O)CC(c3cnc(Cl)c(-c4ccc(F)cc4)c3)NC2=O)cc1` (centres unmarked) [2-295], the death rate in series [3] is listed as ≥ 90%.
Same read-out and setting: in the case of `O=C(Nc1ccc(Cl)nc1)C1=C(O)CC(c2nc(-c3ccccc3F)no2)NC1=O` (centres unmarked) [3-019] it was ≥ 90%.
For the compound `O=C(Nc1cc(F)ccn1)C1=C(O)CC(c2nc(-c3ccc(Cl)c(F)c3)no2)NC1=O` (centres unmarked) [3-145], in series [1], the mortality at 10 µg/cm2 is ≥ 50%. Further, the mortality at 500 µg/mL in series [2] and in series [3] was ≥ 90% in each case.
Consider `Cc1ccoc1-c1noc(C2CC(O)=C(C(=O)Nc3ccc(F)cn3)C(=O)N2)n1` (centres unmarked) [3-094], for which the death rate in series [4] is reported as ≥ 90%.
Same read-out and setting: in the case of `C[S+]([O-])c1ccc(NC(=O)C2=C(O)CC(c3cnc(Cl)c(-c4ccc(Cl)nc4)c3)NC2=O)cc1` (centres unmarked) [2-043] it was ≥ 90%.
With `Cc1cccc(-c2cc(C3CC(O)=C(C(=O)Nc4ccc([N+](=O)[O-])cc4)C(=O)N3)cnc2Cl)c1` (centres unmarked) [2-279], the mortality at 10 µg/cm2 in series [1] is ≥ 50%. The mortality at 500 µg/mL in series [2] and in series [3] was ≥ 90% each time.
Take `Cc1csc(NC(=O)C2=C(O)CC(c3nc(-c4ccc(F)nc4)no3)NC2=O)n1` (centres unmarked) [3-290]: the death rate in series [4] was ≥ 90%.
As to `Cc1ccc(NC(=O)C2=C(O)CC(c3nc(-c4ccnc(F)c4)no3)NC2=O)cc1Cl` (centres unmarked) [3-267], the mortality at 500 µg/mL in series [2] was ≥ 90%.
Consider `O=C(Nc1ccc(Cl)nn1)C1=C(O)CC(c2cnc(Cl)c(-c3cncc(F)c3)c2)NC1=O` (centres unmarked) [2-052], for which the death rate in series [4] is recorded as ≥ 90%.
In the case of `O=C(Nc1nccnn1)C1=C(O)CC(c2cnc(Cl)c(-c3ccc(F)cc3)c2)NC1=O` (centres unmarked) [2-237], the death rate in series [3] was ≥ 90%.
Same read-out and setting: in the case of `COc1ccc(-c2cc(C3CC(O)=C(C(=O)Nc4ccc(Cl)nc4)C(=O)N3)cnc2Cl)cn1` (centres unmarked) [2-017] it was ≥ 90%.
With `N#Cc1ccc(NC(=O)C2=C(O)CC(c3cnc(Cl)c(-c4cncc(F)c4)c3)NC2=O)cc1` (centres unmarked) [2-071], in series [1], the mortality at 10 µg/cm2 is ≥ 50%. The mortality at 500 µg/mL in series [2] and in series [4] was ≥ 90% each time.
As to `O=C(Nc1ccc(F)cc1)C1=C(O)CC(c2nc(-c3ccc(C(F)(F)F)cc3)no2)NC1=O` (centres unmarked) [3-004], the death rate in series [3] is on record as ≥ 90%.
With `Cc1ccnc(NC(=O)C2=C(O)CC(c3nc(-c4ccccn4)no3)NC2=O)c1` (centres unmarked) [3-152], in series [4], the mortality at 500 µg/mL is ≥ 90%.
With `O=C(Nc1nncs1)C1=C(O)CC(c2cnc(Cl)c(-c3ccc(F)cc3)c2)NC1=O` (centres unmarked) [2-239], the mortality at 500 µg/mL in series [2] was ≥ 90%.
`Cc1cccc(-c2cc(C3CC(O)=C(C(=O)Nc4nccnn4)C(=O)N3)cnc2Cl)c1` (centres unmarked) [2-270]: the mortality at 10 µg/cm2 in series [1] is ≥ 50%.
